# Laboratory results from ChEMBL document CHEMBL2040805, “Cyclotides from an extreme habitat: characterization of cyclic peptides from Viola abyssinica of the Ethiopian highlands” (J Nat Prod, 2011).
# System: U-937/GTB
# Experiment: Cytotoxicity against human U937/GTB cells after 72 hrs by fluorometric microculture cytotoxicity assay
# Assay type: functional, cell-based
row,Compound,IC50
1,CC[C@H](C)[C@@H]1NC(=O)[C@@H]2CCCN2C(=O)[C@H](Cc2c[nH]c3ccccc23)NC(=O)[C@H](CO)NC(=O)[C@@H]2CSSC[C@@H]3NC(=O)[C@H]([C@@H](C)O)NC(=O)[C@H](CCC(=O)O)NC(=O)CNC(=O)[C@@H]4CSSC[C@H](NC(=O)CNC(=O)[C@@H]5CCCN5C(=O)[C@H]([C@@H](C)O)NC(=O)[C@H](CC(N)=O)NC(=O)[C@H](CSSC[C@H](NC1=O)C(=O)N[C@@H]([C@@H](C)O)C(=O)N[C@@H](CCCNC(=N)N)C(=O)N[C@@H](CC(N)=O)C(=O)NCC(=O)N[C@@H](CC(C)C)C(=O)N1CCC[C@H]1C(=O)N[C@@H](C(C)C)C(=O)N4)NC(=O)[C@H]([C@@H](C)O)NC(=O)CNC(=O)CNC(=O)[C@H](C)NC3=O)C(=O)N[C@@H](CO)C(=O)N2,7600 nM
2,CC(C)C[C@@H]1NC(=O)CNC(=O)[C@H](CC(N)=O)NC(=O)[C@H](CCCNC(=N)N)NC(=O)[C@H]([C@@H](C)O)NC(=O)[C@@H]2CSSC[C@@H]3NC(=O)[C@H]([C@@H](C)O)NC(=O)CNC(=O)CNC(=O)[C@H](Cc4ccccc4)NC(=O)[C@@H]4CSSC[C@H](NC(=O)[C@H]([C@@H](C)O)NC(=O)[C@H](CSSC[C@H](NC(=O)[C@H](C(C)C)NC(=O)[C@@H]5CCCN5C1=O)C(=O)NCC(=O)N[C@@H](CCC(=O)O)C(=O)N[C@H]([C@@H](C)O)CN4)NC(=O)CNC(=O)[C@@H]1CCCN1C(=O)[C@H]([C@@H](C)O)NC(=O)[C@H](CC(N)=O)NC3=O)C(=O)N[C@@H](CC(=O)O)C(=O)N1CCC[C@H]1C(=O)N[C@@H](Cc1c[nH]c3ccccc13)C(=O)N1CCC[C@H]1C(=O)N[C@@H](C(C)C)C(=O)N2,2600 nM
3,COc1cccc2c1C(=O)c1c(O)c3c(c(O)c1C2=O)C[C@@](O)(C(=O)CO)C[C@@H]3O[C@H]1C[C@H](N)[C@H](O)[C@H](C)O1 [DOXORUBICIN],160 nM
